Results taken from ChEMBL document CHEMBL1255262, “Antimicrobial activity of omiganan pentahydrochloride against contemporary fungal pathogens responsible for catheter-associated infections” (2008).
≈ marks a conversion by molar mass, not a printed value. Peptide text beside a SMILES is read from it.

Columns and labels:
Type in all cases: functional
Candida tropicalis [1] = assay: Antifungal activity against Candida tropicalis after 48 hrs by broth microdilution
Curvularia = assay: Antifungal activity against Curvularia species after 48 hrs by broth microdilution
Candida parapsilosis [2] = assay: Antifungal activity against Candida parapsilosis assessed as resistant isolates after 48 hrs by broth microdilution
Nakaseomyces glabratus [3] = assay: Antifungal activity against Candida glabrata assessed as resistant isolates after 48 hrs by broth microdilution
Nakaseomyces glabratus [4] = assay: Antifungal activity against Candida glabrata assessed as susceptible isolates after 48 hrs by broth microdilution
Paecilomyces variotii = assay: Antifungal activity against Paecilomyces variotii after 48 hrs by broth microdilution
Fusarium sp. = assay: Antifungal activity against Fusarium sp. after 48 hrs by broth microdilution
Penicillium sp. = assay: Antifungal activity against Penicillium sp. after 48 hrs by broth microdilution
Nakaseomyces glabratus [5] = assay: Antifungal activity against Candida glabrata after 48 hrs by broth microdilution
Talaromyces marneffei = assay: Antifungal activity against Penicillium marneffei after 48 hrs by broth microdilution
Candida tropicalis [6] = assay: Antifungal activity against Candida tropicalis assessed as resistant isolates after 48 hrs by broth microdilution
Candida tropicalis [7] = assay: Antifungal activity against Candida tropicalis assessed as susceptible isolates after 48 hrs by broth microdilution
Pichia kudriavzevii [8] = assay: Antifungal activity against Candida krusei after 48 hrs by broth microdilution
Pichia kudriavzevii [9] = assay: Antifungal activity against Candida krusei assessed as resistant isolates after 48 hrs by broth microdilution
Pichia kudriavzevii [10] = assay: Antifungal activity against Candida krusei assessed as susceptible isolates after 48 hrs by broth microdilution
Candida parapsilosis [11] = assay: Antifungal activity against Candida parapsilosis assessed as susceptible isolates after 48 hrs by broth microdilution
Candida albicans [12] = assay: Antifungal activity against Candida albicans after 48 hrs by broth microdilution
Aspergillus sp. = assay: Antifungal activity against Aspergillus sp. after 48 hrs by broth microdilution
Candida albicans [13] = assay: Antifungal activity against Candida albicans assessed as resistant isolates after 48 hrs by broth microdilution
Candida albicans [14] = assay: Antifungal activity against Candida albicans assessed as susceptible isolates after 48 hrs by broth microdilution
Candida parapsilosis [15] = assay: Antifungal activity against Candida parapsilosis after 48 hrs by broth microdilution

Row | Compound | MIC50 (Candida tropicalis [1]) | MIC90 (Candida tropicalis [1]) | MIC50 (Curvularia) | MIC90 (Curvularia) | MIC50 (Paecilomyces variotii) | MIC90 (Paecilomyces variotii) | MIC50 (Fusarium sp.) | MIC90 (Fusarium sp.) | MIC50 (Penicillium sp.) | MIC90 (Penicillium sp.) | MIC50 (Nakaseomyces glabratus [5]) | MIC90 (Nakaseomyces glabratus [5]) | MIC50 (Talaromyces marneffei) | MIC90 (Talaromyces marneffei) | MIC50 (Pichia kudriavzevii [8]) | MIC90 (Pichia kudriavzevii [8]) | MIC50 (Candida albicans [12]) | MIC90 (Candida albicans [12]) | MIC50 (Aspergillus sp.) | MIC90 (Aspergillus sp.) | other results
1 | CCC(C)n1ncn(-c2ccc(N3CCN(c4ccc(OCC5COC(Cn6cncn6)(c6ccc(Cl)cc6Cl)O5)cc4)CC3)cc2)c1=O (centres undefined) [ITRACONAZOLE] | 0.03 µg/mL (≈ 0.0425 µM) | 0.12 µg/mL (≈ 0.17 µM) | 0.06 µg/mL (≈ 0.085 µM) | > 16 µg/mL | 0.06 µg/mL (≈ 0.085 µM) | > 16 µg/mL | 0.06 µg/mL (≈ 0.085 µM) | > 16 µg/mL | 0.06 µg/mL (≈ 0.085 µM) | > 16 µg/mL | 0.12 µg/mL (≈ 0.17 µM) | 0.5 µg/mL (≈ 0.709 µM) | 0.06 µg/mL (≈ 0.085 µM) | > 16 µg/mL | 0.5 µg/mL (≈ 0.709 µM) | 0.5 µg/mL (≈ 0.709 µM) | 0.12 µg/mL (≈ 0.17 µM) | 16 µg/mL (≈ 22.7 µM) | 0.03 µg/mL (≈ 0.0425 µM) | 0.06 µg/mL (≈ 0.085 µM) | Activity (Candida parapsilosis [2]): 0%; Activity (Nakaseomyces glabratus [3]): 4.6%; Activity (Nakaseomyces glabratus [4]): 72.7%; Activity (Candida tropicalis [6]): 0%; Activity (Candida tropicalis [7]): 100%; Activity (Pichia kudriavzevii [9]): 0%; Activity (Pichia kudriavzevii [10]): 10%; Activity (Candida parapsilosis [11]): 63.6%; Activity (Candida albicans [13]): 48.1%; Activity (Candida albicans [14]): 50%; MIC50 (Candida parapsilosis [15]; Lodderomyces parapsilosis): 0.06 µg/mL (≈ 0.085 µM); MIC90 (Candida parapsilosis [15]; Lodderomyces parapsilosis): 0.25 µg/mL (≈ 0.354 µM)
2 | CC[C@H](C)[C@H](N)C(=O)N[C@@H](CC(C)C)C(=O)N[C@@H](CCCNC(=N)N)C(=O)N[C@@H](Cc1c[nH]c2ccccc12)C(=O)N1CCC[C@H]1C(=O)N[C@@H](Cc1c[nH]c2ccccc12)C(=O)N[C@@H](Cc1c[nH]c2ccccc12)C(=O)N1CCC[C@H]1C(=O)N[C@@H](Cc1c[nH]c2ccccc12)C(=O)N[C@@H](CCCNC(=N)N)C(=O)N[C@@H](CCCNC(=N)N)C(=O)N[C@@H](CCCCN)C(N)=O.Cl.Cl.Cl.Cl.Cl [OMIGANAN PENTAHYDROCHLORIDE] (H-ILRWPWWPWRRK-NH2) | 32 µg/mL | 32 µg/mL | 64 µg/mL | 256 µg/mL | 64 µg/mL | 256 µg/mL | 64 µg/mL | 256 µg/mL | 64 µg/mL | 256 µg/mL | 256 µg/mL | 256 µg/mL | 64 µg/mL | 256 µg/mL | 64 µg/mL | 128 µg/mL | 64 µg/mL | 128 µg/mL | 128 µg/mL | 1020 µg/mL | MIC50 (Candida parapsilosis [15]; Lodderomyces parapsilosis): 128 µg/mL; MIC90 (Candida parapsilosis [15]; Lodderomyces parapsilosis): 256 µg/mL
3 | C[C@@H](c1ncncc1F)[C@](O)(Cn1cncn1)c1ccc(F)cc1F [VORICONAZOLE] | 0.015 µg/mL (≈ 0.0429 µM) | 16 µg/mL (≈ 45.8 µM) | 0.25 µg/mL (≈ 0.716 µM) | 2 µg/mL (≈ 5.73 µM) | 0.25 µg/mL (≈ 0.716 µM) | 2 µg/mL (≈ 5.73 µM) | 0.25 µg/mL (≈ 0.716 µM) | 2 µg/mL (≈ 5.73 µM) | 0.25 µg/mL (≈ 0.716 µM) | 2 µg/mL (≈ 5.73 µM) | 0.06 µg/mL (≈ 0.172 µM) | 2 µg/mL (≈ 5.73 µM) | 0.25 µg/mL (≈ 0.716 µM) | 2 µg/mL (≈ 5.73 µM) | 0.25 µg/mL (≈ 0.716 µM) | 0.5 µg/mL (≈ 1.43 µM) | 0.03 µg/mL (≈ 0.0859 µM) | > 16 µg/mL | 0.25 µg/mL (≈ 0.716 µM) | 0.25 µg/mL (≈ 0.716 µM) | MIC (Candida tropicalis [1]): 0.015 µg/mL (≈ 0.0429 µM); Activity (Candida parapsilosis [2]): 0%; Activity (Nakaseomyces glabratus [3]): 0%; Activity (Nakaseomyces glabratus [4]): 86.4%; Activity (Candida tropicalis [6]): 27.3%; Activity (Candida tropicalis [7]): 72.7%; Activity (Pichia kudriavzevii [9]): 0%; Activity (Pichia kudriavzevii [10]): 100%; Activity (Candida parapsilosis [11]): 100%; Activity (Candida albicans [13]): 25%; Activity (Candida albicans [14]): 75%; MIC50 (Candida parapsilosis [15]; Lodderomyces parapsilosis): 0.015 µg/mL (≈ 0.0429 µM); MIC90 (Candida parapsilosis [15]; Lodderomyces parapsilosis): 0.12 µg/mL (≈ 0.344 µM)
4 | NYSTATIN | 8 µg/mL | 8 µg/mL | 8 µg/mL | 16 µg/mL | 8 µg/mL | 16 µg/mL | 8 µg/mL | 16 µg/mL | 8 µg/mL | 16 µg/mL | 8 µg/mL | 8 µg/mL | 8 µg/mL | 16 µg/mL | 8 µg/mL | 8 µg/mL | 8 µg/mL | 8 µg/mL | 16 µg/mL | 16 µg/mL | MIC50 (Candida parapsilosis [15]): 8 µg/mL; MIC90 (Candida parapsilosis [15]): 8 µg/mL
